EP1737880B1, “17ALPHA-FLUORO-17BETA-HYDROXI[…], A METHOD FOR PRODUCTION THEREOF AND PHARMACEUTICAL COMPOSITIONS COMPRISING SAID COMPOUNDS” (Bayer Schering Pharma Aktiengesellschaft, priority 2004, dated 2005)

Key:
PR-B = target: T1, PR-B (Homo sapiens, UniProt P06401); experiment: PR-B antagonism and agonism; format: cell-based
T1 sequence (P06401 1-933): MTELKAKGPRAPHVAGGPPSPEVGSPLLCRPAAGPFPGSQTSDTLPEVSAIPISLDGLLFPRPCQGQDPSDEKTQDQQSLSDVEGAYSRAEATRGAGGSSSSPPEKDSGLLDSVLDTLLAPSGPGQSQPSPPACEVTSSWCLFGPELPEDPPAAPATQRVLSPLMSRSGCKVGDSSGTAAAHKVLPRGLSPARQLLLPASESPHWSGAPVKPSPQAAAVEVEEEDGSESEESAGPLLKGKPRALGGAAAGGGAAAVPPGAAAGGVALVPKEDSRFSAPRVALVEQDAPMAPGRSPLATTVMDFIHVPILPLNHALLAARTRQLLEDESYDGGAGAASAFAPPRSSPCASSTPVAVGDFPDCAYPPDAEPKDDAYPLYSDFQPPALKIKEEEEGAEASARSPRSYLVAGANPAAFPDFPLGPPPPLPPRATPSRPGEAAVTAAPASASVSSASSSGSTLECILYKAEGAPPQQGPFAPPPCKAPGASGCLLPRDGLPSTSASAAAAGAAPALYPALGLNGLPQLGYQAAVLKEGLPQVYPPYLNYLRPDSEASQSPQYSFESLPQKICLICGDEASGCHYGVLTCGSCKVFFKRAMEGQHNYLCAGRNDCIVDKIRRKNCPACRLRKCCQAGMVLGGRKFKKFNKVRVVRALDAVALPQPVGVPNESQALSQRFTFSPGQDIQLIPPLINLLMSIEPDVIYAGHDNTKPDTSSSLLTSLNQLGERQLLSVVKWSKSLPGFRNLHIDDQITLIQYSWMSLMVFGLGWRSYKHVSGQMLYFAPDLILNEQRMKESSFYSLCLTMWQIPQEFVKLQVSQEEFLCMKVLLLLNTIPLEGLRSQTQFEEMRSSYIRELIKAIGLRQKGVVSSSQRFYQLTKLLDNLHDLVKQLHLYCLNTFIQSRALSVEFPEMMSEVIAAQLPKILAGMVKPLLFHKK
From the text: PR-B Antagonismus und Agonismus

Maus = experiment: Gestagenic activity in the pregnancy maintenance test, mouse; format: in vivo
5α-Reduktase-Typ2 = target: T2, 5α-Reduktase-Typ2 (Homo sapiens, UniProt P31213); experiment: 5α-reductase type 2 activity in genital skin homogenates; format: biochemical; details: Genitalhaut-Homogenate, optimised conditions, pH 5.5
T2 construct: In Genitalhaut-Homogenaten unter optimierten Bedingungen bei pH 5.5; from tissue; host or cells: genital skin homogenate
T2 sequence (P31213 1-254): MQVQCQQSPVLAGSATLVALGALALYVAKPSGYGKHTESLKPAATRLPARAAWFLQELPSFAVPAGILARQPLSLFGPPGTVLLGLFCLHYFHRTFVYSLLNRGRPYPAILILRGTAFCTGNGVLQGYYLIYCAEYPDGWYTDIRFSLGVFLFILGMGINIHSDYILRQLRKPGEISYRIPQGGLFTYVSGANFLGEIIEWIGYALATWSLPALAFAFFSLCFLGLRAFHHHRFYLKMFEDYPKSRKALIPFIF
From the text: Nachfolgend sind beispielhafte Daten zur Progesteronrezeptorbindung, 5α-Reduktase-Typ2-Aktivität in Genitalhaut-Homogenaten und in vivo- Daten am Beispiel von (E)-17α-Fluor-3-oxo-estr-4-en-17β-carbaldehyd oxim aufgeführt

Progesteronrezeptor = target: T3, Progesteronrezeptor (Oryctolagus cuniculus, UniProt P06186); experiment: Binding to the progesterone receptor (relative binding affinity, tracer 3H-ORG 2058); details: Uterus-Cytosol, Kaninchen, geprimt, 0-4°C, 18 h, Referenzsubstanz Progesteron = 100%
T3 construct: Uterus-Cytosol, Kaninchen, geprimt; from tissue; host or cells: uterus cytosol of primed rabbits
T3 sequence (P06186 1-930): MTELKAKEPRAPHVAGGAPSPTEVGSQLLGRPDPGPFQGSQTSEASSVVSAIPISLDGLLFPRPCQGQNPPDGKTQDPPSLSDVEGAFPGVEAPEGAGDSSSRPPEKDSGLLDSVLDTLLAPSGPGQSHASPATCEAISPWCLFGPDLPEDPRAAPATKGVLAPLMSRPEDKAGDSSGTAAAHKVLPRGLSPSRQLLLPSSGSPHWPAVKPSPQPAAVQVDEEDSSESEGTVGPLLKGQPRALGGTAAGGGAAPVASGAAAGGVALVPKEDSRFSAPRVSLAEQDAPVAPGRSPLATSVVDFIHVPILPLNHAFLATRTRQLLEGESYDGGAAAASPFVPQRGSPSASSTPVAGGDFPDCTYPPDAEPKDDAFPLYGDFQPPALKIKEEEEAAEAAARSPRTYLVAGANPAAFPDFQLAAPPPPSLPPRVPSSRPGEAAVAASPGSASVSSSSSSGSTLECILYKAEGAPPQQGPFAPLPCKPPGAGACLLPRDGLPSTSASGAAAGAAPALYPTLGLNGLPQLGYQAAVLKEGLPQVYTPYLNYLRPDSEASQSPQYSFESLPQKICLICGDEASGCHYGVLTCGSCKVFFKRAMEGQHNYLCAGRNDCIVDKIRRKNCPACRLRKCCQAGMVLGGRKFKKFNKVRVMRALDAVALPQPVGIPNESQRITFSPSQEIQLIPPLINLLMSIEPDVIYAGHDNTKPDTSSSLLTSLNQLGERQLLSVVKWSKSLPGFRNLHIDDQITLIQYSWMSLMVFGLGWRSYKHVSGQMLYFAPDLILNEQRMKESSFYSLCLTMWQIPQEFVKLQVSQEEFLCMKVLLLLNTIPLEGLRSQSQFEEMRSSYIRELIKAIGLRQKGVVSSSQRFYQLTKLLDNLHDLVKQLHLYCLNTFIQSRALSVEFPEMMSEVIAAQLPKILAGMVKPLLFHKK
From the text: Bindung der Verbindung I an den Progesteronrezeptor

With `C[C@]12CC[C@H]3[C@@H](CCC4=CC(=O)CC[C@@H]43)[C@@H]1CC[C@]2(F)/C=N/O` [Verbindung 7, (E)-17α-Fluor-3-oxo-estr-4-en-17β-carbaldehyd oxim] the EC50 (PR-B; agonist mode, read-out: Agonismus IC50) was 0.25 nM, the IC50 (PR-B; antagonist mode, read-out: Antagonismus IC50) was 0.339 nM and the “Rate der erhaltenen Graviditäten” value (Maus; Dosis 0,03 mg/Tier/Tag) was 2/2. For the same molecule, the “Rate der erhaltenen Graviditäten” value (Maus; Dosis 0,3 mg/Tier/Tag) was 3/3, the “Rate der erhaltenen Graviditäten” value (Maus; Dosis 0,003 mg/Tier/Tag) was 0/3 and the IC50 (5α-Reduktase-Typ2) was 245 nM. The “Relative Bindungsaffinität RBA[%]” value (Progesteronrezeptor) was 131 ± 9%.
